In one data set the test system is Beagle dog. Nature of the data set: Cardiovascular function in conscious dogs. It counts as in vivo. The conditions noted are these: doses up to 2000 mg/kg. The protocol: CA was administered to one unanesthetized and unrestrained telemetered male Beagle dog and EC-18 (500, 1000, or 2000 mg/kg) was administered to each of three unanesthetized and unrestrained telemetered male Beagle dogs (1:1:1:1) weekly for 4 weeks. Cardiovascular effects were evaluated based on the behavioral observations, BP, HR, and ECG, from 1-hr pre-dose to 24-hr post-dose.

The next data set concerns the target hERG channel (Homo sapiens, UniProt Q12809). Put plainly: In vitro hERG channel inhibition. The note with it: for hERG channel current suppression rate (compensated suppression rate): HEK-293 cells.

Molecules are shown by their SMILES.

Chain of hERG channel (Q12809 whole entry): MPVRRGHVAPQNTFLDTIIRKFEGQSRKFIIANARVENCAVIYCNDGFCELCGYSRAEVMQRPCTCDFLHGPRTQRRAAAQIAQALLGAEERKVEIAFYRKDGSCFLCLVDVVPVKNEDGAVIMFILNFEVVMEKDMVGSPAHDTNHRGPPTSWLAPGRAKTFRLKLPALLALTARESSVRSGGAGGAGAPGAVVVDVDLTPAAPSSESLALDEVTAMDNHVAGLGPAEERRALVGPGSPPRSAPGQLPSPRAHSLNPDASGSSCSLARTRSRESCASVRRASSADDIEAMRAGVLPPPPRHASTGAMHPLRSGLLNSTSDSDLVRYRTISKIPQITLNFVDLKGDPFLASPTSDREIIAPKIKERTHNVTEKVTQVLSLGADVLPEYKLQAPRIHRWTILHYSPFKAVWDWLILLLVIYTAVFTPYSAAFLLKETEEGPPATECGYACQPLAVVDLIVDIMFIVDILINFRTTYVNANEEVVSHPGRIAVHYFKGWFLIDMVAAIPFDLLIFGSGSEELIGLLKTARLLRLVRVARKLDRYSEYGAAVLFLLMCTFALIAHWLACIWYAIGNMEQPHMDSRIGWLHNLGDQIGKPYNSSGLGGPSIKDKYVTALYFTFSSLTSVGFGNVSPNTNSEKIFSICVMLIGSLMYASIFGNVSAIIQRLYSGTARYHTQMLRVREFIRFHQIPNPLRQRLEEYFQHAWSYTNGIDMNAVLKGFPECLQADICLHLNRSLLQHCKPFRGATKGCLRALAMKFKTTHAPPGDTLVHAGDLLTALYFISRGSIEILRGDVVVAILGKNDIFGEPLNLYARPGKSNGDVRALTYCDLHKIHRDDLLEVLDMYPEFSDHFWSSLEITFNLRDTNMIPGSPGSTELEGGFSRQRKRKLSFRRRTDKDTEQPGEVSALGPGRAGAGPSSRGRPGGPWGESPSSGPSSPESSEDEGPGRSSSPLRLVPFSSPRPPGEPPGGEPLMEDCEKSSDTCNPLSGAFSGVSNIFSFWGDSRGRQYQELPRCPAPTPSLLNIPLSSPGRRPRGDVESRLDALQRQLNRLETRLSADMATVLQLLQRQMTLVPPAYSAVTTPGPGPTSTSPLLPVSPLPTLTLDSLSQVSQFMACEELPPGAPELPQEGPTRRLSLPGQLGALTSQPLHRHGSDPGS

With `CCCCC/C=C\C/C=C\CCCCCCCC(=O)OC(COC(C)=O)COC(=O)CCCCCCCCCCCCCCC` (stereo not drawn) [EC-18, 1-palmitoyl-2-linoleoyl-3-acetylglycerol], in the data set on Beagle dog, the “cardiovascular effects (behavior, BP, HR, ECG)” value is “no cardiovascular effects”. Moreover, the “hERG channel current suppression rate (compensated suppression rate)” value at hERG channel (125 μM) worked out at 1.39%; at hERG channel (250 μM), 2.97%; at hERG channel (500 μM) it was 2.54%; at hERG channel (1000 μM), 2.90%. Further, the “hERG channel current inhibition” value on hERG channel (concentrations up to 1000 μM) is given as “did not inhibit the hERG channel current”.

Values taken from patent publication US12076307B2, “Compositions for prevention or treatment of acute radiation syndrome and other radiation exposure” (priority 2017, dated 2024).
